The source of these data is US20090054414A1, “Rufinamide for the Treatment of Post-Traumatic Stress Disorder” (SYNOSIA THERAPEUTICS, priority 2007, published 2009).

The subject of one assay is Male OF1/IC mice. Put plainly: modified stress-induced hyperthermia (SIH) test. It counts as in vivo, mouse. The procedure:
Rufinamide was tested in the modified stress-induced model of anxiety. The stress-induced hyperthermia test in mice is a paradigm developed several years ago to model the expression of autonomic hyperactivity in anxiety (Lecci A, Borsini F, Volterra G, Meli A. (1990) Pharmacological validation of a novel model of anticipatory anxiety in mice. Psychopharmacology; 101:255-61.; Spooren W P, Schoeffter P, Gasparini F, Kuhn R, Gentsch C. (2002) Pharmacological and endocrinological characterisation of stress-induced hyperthermia in singly housed mice using classical and candidate anxiolytics (LY314582, MPEP and NKP608). Eur J Pharmacol; 435:161-70.;Zethof T J J, van der Heyden J A M, Tolboom J B M, Olivier B (1994) Stress-induced hyperthermia in mice: a methodological study. Phys. Behav. 55:109-115.). […] Pharmacol Biochem Behav 72:179-188.
Male OF1/IC mice (MA205 Tiger code) were obtained several days prior to behavioural testing from Iffa Credo (L'Arbresle, France; 18-20 g) and housed in groups of 15 animals per cage (macrolon cages 42H26H15 cm, Type 4). The animals were individually housed (macrolon cage: 26H21H14 cm, Type 2) 24 h before testing. The day preceding the experiment, all cages were transferred to the testing room—and background noise (radio) was used during the light cycle. Both the animal room and the laboratory were temperature controlled and equipped with artificial illumination (L12:D12; lights on 06:00). Mice always had ad libitum access to water and food (Ecosan, Eberle Nafag A G, Gossau, Schweiz).
The test procedure for the modified stress-induced hyperthermia was adapted from van der Heyden et al. (1997). Rectal temperature was measured in each mouse twice, i.e. at t=0 min (T1) and t=+15 min (T2). The difference in temperature (T2-T1) was considered to reflect the stress-induced hyperthermia (SIH). […] In addition, a comparison between T1 in vehicle-treated mice and in animals treated with a given dose of a test-compound was used, to measure whether a test-compound affected body temperature alone.
Rectal temperature was measured to the nearest 0.1° C. by an ELLAB instruments (Copenhagen, Denmark) thermometer Model DM 852 by inserting a lubricated thermistor probe model PRA-22002-A (ELLAB, Copenhagen, Denmark) (2.2 mm diameter) 20 mm into the rectum; the mouse was hand held at the base of the tail during this determination and the thermistor probe was left in place for 15 s.
All drugs were made up fresh and dissolved in vehicle (0.5% methylcellulose) and administered per os (p.o.) in a volume of 10 ml/kg.
All data was analysed using a one-way analysis of variance (ANOVA) followed where appropriate by Dunnett test of multiple comparisons. The level of significance was set at p<0.05.

In another assay the test system is male OF-1 mice. Kind of assay: half-enclosed platform (HEP) test. In kind it is in vivo, mouse. Particulars: 0.32/1/3.2 and 10 mg/kg p.o., 1 hr before testing. An excerpt:
Rufinamide and carbamazepine were compared in the half-enclosed platform (HEP) test. The test determines how drugs affect the exploratory behaviour of a mouse placed upon a novel, half-enclosed platform and gives information as to whether a drug is a stimulant, depressant or disinhibitory as with, for example the benzodiazepines which increase exploration of the platform. It is also useful for determining duration of action and dose-findings studies. The HEP is a further development of the simple elevated platform used by Kaesermann to assess anxiolytic properties of drugs (Ref. Käsermann H. P. (1986) Psychopharmacol. 89:31-37). In this study carbamazepine and rufinamide were tested in the same dose ranges i.e. 0.32/1/3.2 and 10 mg/kg p.o. of each were given to male OF-1 mice 1 hr before testing.
The ethogram used consists of 9 elements of exploratory behaviour two of which involve static postures i.e. immobility and stretched attend posture, the latter being an ambivalent element indicative of approach-avoidance conflict. These elements are immediately spontaneous and are not induced by either training or punishment procedures. Upright postures which are posturally demanding are useful to detect muscle relaxation e.g. rearing (FIG. 10).

The subject of the next assay is “intruder” rat. Put plainly: social exploration test in rats. In kind it is in vivo. The following applies: vs vehicle. An excerpt: There remains a paucity of data investigating the anxiolytic potential of this rufinamide. Therefore the aim of the present study was to test the effect of rufinamide (FIG. 1, chemical structure of rufinamide) with regard to a possible facilitation of social behavior (anxiolytic-like effect) using the social exploration test in rats as a paradigm. The basis of this test is that when an adult “resident” rat is kept in social isolation for two weeks, its natural tendency to establish territorial defensive reactions is increased. […] Male adult Sprague Dawley rats (Ra238, OFA/IC strain, Iffa Credo, France) (“residents”) weighing 350-400 g and young Lister Hooded rats (li/ho, Harlan, The Netherlands) (“intruders”) weighing 100-120 g were used. “Intruders” were housed in pairs and the “residents” were individually housed for two weeks before the test in plastic cages (Macrolon, 42×26×15 cm). All animals lived in a room lit from 6 a.m. until 6 p.m. and had always free access to standard food and water. […]
Pairs consisting of one “intruder” rat and one “resident” rat were assigned at random to one of the experimental or the control groups. […] The duration of active approach behaviors of the “intruder” rat (sniffing, anogenital exploration, nosing, grooming, licking, playing) towards the “resident” was manually registered and cumulatively recorded over a period of 5 minutes. […]

Molecules are shown by their SMILES.

Take `NC(=O)c1cn(Cc2c(F)cccc2F)nn1` [rufinamide, 1-(2,6-difluorobenzyl)-1H-1,2,3-triazole-4-carboxamide]: the “body temperature T2 (15 min after stress)” value is reported as “significant lower body temperature than control animals” with Male OF1/IC mice (first experiment, rufinamide 100 mg/kg p.o., p<0.001); “significant lower body temperature than control animals” in the assay with Male OF1/IC mice (pooled data, rufinamide 25, 50, 100, 200 and 300 mg/kg); “significant lower body temperature than control animals” in the assay with Male OF1/IC mice (second experiment, rufinamide at the highest doses (30 and 100 mg/kg, p.o.)); “significant lower body temperature than control animals” in the assay with Male OF1/IC mice (third experiment, rufinamide 100 and 200 mg/kg p.o.). The “SIH response (T2-T1)” value in the assay on Male OF1/IC mice (first experiment, rufinamide 3, 10, 30, 100 mg/kg p.o., 60 min before T1, n=12) is “only the positive control CDZ (10 mg/kg, p.o.) reversed significantly”; in the assay on Male OF1/IC mice (pooled data of all 3 experiments, rufinamide 30, 50, 100, 200 and 300 mg/kg p.o.) it was “significantly attenuated”; in the assay on Male OF1/IC mice (second experiment (0.3, 3, 30, 300 mg/kg tested), rufinamide 0.3, 30 and 300 mg/kg p.o. (p<0.05, p<0.01, p<0.001)), “significantly attenuated”; with Male OF1/IC mice (third experiment (25, 50, 100, 200 mg/kg tested), rufinamide 50 (p<0.05), 100 and 200 mg/kg p.o. (p<0.001)) it was “significantly reduced”. In the assay on Male OF1/IC mice (p.o.), the “dose eliciting a robust reversal of the physiological response to an acute stressor” value is recorded as greater than 30 mg/kg. Further, the “doses needed to induce robust anxiolytic-like effects in the SIH paradigm” value in the assay with Male OF1/IC mice (p.o.) was in the range of 100 to 300 mg/kg. Further, in the assay with male OF-1 mice, the “changes in durations of exploratory and stationary elements” value is on record as “followed suit but rarely attained statistical significance”. The “duration of head raising in the open half” value with male OF-1 mice is listed as “increased”. For the same compound, the “duration of inactivity (sta) in the enclosed half” value in the assay on male OF-1 mice is “shortened”. Also, the “frequencies of stationary elements (Sta: sitting still, inactivity)” value with male OF-1 mice was “decreased in a significant manner”. Moreover, the “exploratory elements stretched attend posture (sap), head raising (hu) and forward locomotion (go), frequency” value with male OF-1 mice (dose-related) is on record as “significantly increased”. Also, the “time spent in social contact” value with “intruder” rat (rufinamide 0.3 mg/kg p.o., 1 hour after application) was “did not induce any significant change”. In the assay with “intruder” rat (rufinamide 1, 3, 10, 30 and 100 mg/kg p.o., tested 1 hour after application, 5 min observation), the “duration of social contacts of an intruder toward a resident rat” value is recorded as “significantly increased”.
